# Assay results from patent US10633419B2, “Immunomodulators” (BRISTOL-MYERS SQUIBB COMPANY, priority 2014, dated 2020).
# Starred links: 1 amine or outer side, 2 acyl side, 3 side chain; linkers in the order of their positions; H or OH if unused. Positions of bridges follow the written chain, without caps; N, C: chain ends. Non-standard residues stand in square brackets, D forms with d. Residues, ends and D or L forms follow the SMILES beside them. Groups on a side chain read outwards from the residue. ξ: configuration not given here. *: point of attachment. δOrn(Nα-Octadecanedioyl) = O=C(O)CCCCCCCCCCCCCCCCC(=O)N[C@@H](CCCN*)C(=O)O; X13 = O=C(O)CCCCCCCCCCCCCCC(=O)N[C@@H](CCC(=O)NCCCOCCOCCOCCCN*)C(=O)O; Trp(1-CH2COOH) = N[C@@H](Cc1cn(CC(=O)O)c2ccccc12)C(=O)O; X8 = O=C(O)CCCCCCCCCCCCNC(=O)CCC(=O)NCCCOCCOCCOCCCN*; X14 = O=C(O)CCCCCCCCCCNC(=O)CCC(=O)NCCCOCCOCCOCCCN*; C18 diacid = O=C(O)CCCCCCCCCCCCCCCCC(=O)*; γGlu = O=C(O)[C@H](CCC(=O)[*:2])N[*:1]; PEG6 = NCCOCCOCCOCCOCCOCCOCCC(=O)O; Palmitoyl = CCCCCCCCCCCCCCCC(=O)*; Hyp = O=C(O)[C@@H]1C[C@@H](O)CN1; NMeNle = CCCC[C@H](NC)C(=O)O; Pip = O=C(O)[C@@H]1CCCCN1; NMeA = CN[C@@H](C)C(=O)O; Pra = C#CC[C@H](N)C(=O)O; Aun = NCCCCCCCCCCC(=O)O; Dab = NCC[C@H](N)C(=O)O; Dap = NC[C@H](N)C(=O)O; ξC = NC(CS)C(=O)O; Sar = CNCC(=O)O
# Target: T1, PD-L1 (Homo sapiens, UniProt Q9NZQ7)
# T1 construct: hPDL1(19-239)-TVMV-His; made in house; host or cells: HEK293T
# Assay: PD-1/PD-L1 Homogenous Time-Resolved Fluorescence (HTRF) binding assay (PD-1-Ig/PD-L1-His)
# Details: inhibition of PD-1-Ig binding to PD-L1-TVMV-His; value given as number; read-out: HTRF IC50
# How it was run: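 HTRF competition in dPBS with 0.1% BSA and 0.05% Tween-20: 20 nM PD-1-Ig added after 15 min compound pre-incubation with 10 nM PD-L1-His, then another 15 min. Signal (665/620 nm) after 30 min with APC anti-His (20 nM) and Eu anti-Ig (1 nM).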
# T1 sequence (Q9NZQ7 with tags, fused parts or gaps): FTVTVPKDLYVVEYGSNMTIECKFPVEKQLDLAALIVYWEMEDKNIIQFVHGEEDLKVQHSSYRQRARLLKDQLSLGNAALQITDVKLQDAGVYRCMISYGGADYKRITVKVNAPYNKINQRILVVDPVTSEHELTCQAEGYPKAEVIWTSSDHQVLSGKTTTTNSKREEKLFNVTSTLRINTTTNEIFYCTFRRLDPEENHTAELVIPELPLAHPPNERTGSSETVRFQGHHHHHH
row,IC50 [nM],Structure (SMILES)
1,14,CCCC[C@H]1C(=O)N(C)[C@@H](CCCC)C(=O)N[C@@H](CC(C)C)C(=O)N[C@H](C(=O)NCC(=O)N[C@@H](Cc2cn(CC[C@H](NC(=O)CCCCCCCCCCCCCCCCC(=O)O)C(=O)O)nn2)C(=O)O)CSCC(=O)N[C@@H](Cc2ccc(O)cc2)C(=O)N(C)[C@@H](C)C(=O)N[C@@H](CC(N)=O)C(=O)N2CCC[C@H]2C(=O)N[C@@H](CN)C(=O)N[C@@H](CC(C)C)C(=O)N2C[C@H](O)C[C@H]2C(=O)N[C@@H](Cc2c[nH]c3ccccc23)C(=O)N[C@@H](CCN)C(=O)N[C@@H](Cc2cn(CC(=O)O)c3ccccc23)C(=O)N1C [Example 14095]

# Same assay, conditions: inhibition of PD-1-Ig binding to PD-L1-TVMV-His; value given as range class; read-out: HTRF IC50
row,Structure (SMILES),IC50 [nM]
1,"C#CC[C@H](NC(=O)CNC(=O)[C@@H]1CSCC(=O)N[C@@H](Cc2ccc(O)cc2)C(=O)N(C)[C@@H](C)C(=O)N[C@@H](CC(=O)O)C(=O)N2CCC[C@H]2C(=O)N[C@@H](Cc2c[nH]cn2)C(=O)N[C@@H](CCCCN)C(=O)N2C[C@H](O)C[C@H]2C(=O)N[C@@H](Cc2c[nH]c3ccccc23)C(=O)N[C@@H](CCCCN)C(=O)N[C@@H](Cc2c[nH]c3ccccc23)C(=O)N(C)[C@@H](CCCC)C(=O)N(C)[C@@H](CCCC)C(=O)N[C@@H](CCC(=O)O)C(=O)N1)C(N)=O [INT 1400F, ClAc-Tyr-mAla-Asp-Pro-His-Lys-Hyp-Trp-Lys-Trp-mNle-mNle-Glu-Cys-Gly-[(S)-propargylglycine]] ({CH2CO}-Y[NMeA]DPHK[Hyp]WKW[NMeNle][NMeNle]ECG[Pra]-NH2; thioether N-14)",0.3 to 9.9
2,CCCC[C@H]1C(=O)N(C)[C@@H](CCCC)C(=O)N[C@@H](CC(C)C)C(=O)N[C@H](C(=O)NCCCOCCOCCOCCCNC(=O)CCC(=O)NCCCCCCCCCCC(=O)O)CSCC(=O)N[C@@H](Cc2ccc(O)cc2)C(=O)N(C)[C@@H](C)C(=O)N[C@@H](CCC(=O)O)C(=O)N2CCC[C@H]2C(=O)N[C@@H](Cc2cnc[nH]2)C(=O)N[C@@H](CCCCN)C(=O)N2C[C@H](O)C[C@H]2C(=O)N[C@@H](Cc2c[nH]c3ccccc23)C(=O)N[C@@H](CCCCN)C(=O)N[C@@H](Cc2cn(CC(=O)O)c3ccccc23)C(=O)N1C [Example 11139] ({CH2CO}-Y[NMeA]EPHK[Hyp]WK[Trp(1-CH2COOH)][NMeNle][NMeNle]LC-X14; thioether N-14),10 to 99
3,CCCCCCCCCCCCCCCC(=O)NCCCC[C@H](NC(=O)CCOCCOCCOCCOCCOCCOCCNC(=O)CNC(=O)C1CSCC(=O)N[C@@H](Cc2ccc(O)cc2)C(=O)N(C)[C@@H](C)C(=O)N[C@@H](CC(=O)O)C(=O)N2CCC[C@H]2C(=O)N[C@@H](Cc2cnc[nH]2)C(=O)N[C@@H](CC(C)C)C(=O)N2C[C@H](O)C[C@H]2C(=O)N[C@@H](Cc2c[nH]c3ccccc23)C(=O)N[C@@H](CO)C(=O)N[C@@H](Cc2c[nH]c3ccccc23)C(=O)N(C)[C@@H](CCCC)C(=O)N(C)[C@@H](CCCC)C(=O)N[C@@H](CCCNC(=N)N)C(=O)N1)C(N)=O (stereo partly shown) [Example 11029] ({CH2CO}-Y[NMeA]DPHL[Hyp]WSW[NMeNle][NMeNle]R[ξC]G[PEG6]K(Palmitoyl)-NH2; thioether N-14),100 to 1600
4,CCCC[C@H]1C(=O)N(C)[C@@H](CCCC)C(=O)N[C@@H](CC(C)C)C(=O)N[C@H](C(=O)NCCCOCCOCCOCCCNC(=O)CCC(=O)NCCCCCCCCCCCCC(=O)O)CSCC(=O)N[C@@H](Cc2ccc(O)cc2)C(=O)N(C)[C@@H](C)C(=O)N[C@@H](CC(=O)O)C(=O)N2CCC[C@H]2C(=O)N[C@@H](Cc2cnc[nH]2)C(=O)N[C@@H](CCCCN)C(=O)N2C[C@H](O)C[C@H]2C(=O)N[C@@H](Cc2c[nH]c3ccccc23)C(=O)N[C@@H](CCCCN)C(=O)N[C@@H](Cc2cn(CC(=O)O)c3ccccc23)C(=O)N1C [Example 11219] ({CH2CO}-Y[NMeA]DPHK[Hyp]WK[Trp(1-CH2COOH)][NMeNle][NMeNle]LC-X8; thioether N-14),10 to 99
5,CCCCCCCCCCCCCCCCNC(=O)CCCCCCCCCCNC(=O)[C@@H]1CSCC(=O)N[C@@H](Cc2ccc(O)cc2)C(=O)N(C)[C@@H](C)C(=O)N[C@@H](CC(N)=O)C(=O)N2CCC[C@H]2C(=O)N[C@@H](Cc2cnc[nH]2)C(=O)N[C@@H](CC(C)C)C(=O)N2C[C@H](O)C[C@H]2C(=O)N[C@@H](Cc2c[nH]c3ccccc23)C(=O)N[C@@H](CO)C(=O)N[C@@H](Cc2c[nH]c3ccccc23)C(=O)N(C)[C@@H](CCCC)C(=O)N(C)[C@@H](CCCC)C(=O)N[C@@H](CCCNC(=N)N)C(=O)N1 [Example 11115],100 to 1600

# Further lines, results first:
row,IC50 [nM],Structure (SMILES)
1,10 to 99,CCCC[C@H]1C(=O)N(C)[C@@H](CCCC)C(=O)N[C@@H](CC(C)C)C(=O)N[C@H](C(=O)NCC(=O)N[C@@H](CCNC(=O)CC[C@H](NC(=O)CCCCCCCCCCCCCCCCC(=O)O)C(=O)O)C(=O)O)CSCC(=O)N[C@@H](Cc2ccc(OC)cc2)C(=O)N2CCCC[C@H]2C(=O)N[C@@H](CC(N)=O)C(=O)N2CCC[C@H]2C(=O)N[C@@H](Cc2c[nH]cn2)C(=O)N[C@@H](CC(C)C)C(=O)N2C[C@H](O)C[C@H]2C(=O)N[C@@H](Cc2c[nH]c3ccccc23)C(=O)N[C@@H](CCN)C(=O)N[C@@H](Cc2cn(CC(=O)O)c3ccccc23)C(=O)N1C [Example 13151] ({CH2CO}-Y(Me)[Pip]NPHL[Hyp]W[Dab][Trp(1-CH2COOH)][NMeNle][NMeNle]LCG[Dab]([γGlu-C18 diacid])-OH; thioether N-14)
2,0.3 to 9.9,CCCC[C@H]1C(=O)N(C)[C@@H](CCCC)C(=O)N[C@@H](CC(C)C)C(=O)N[C@H](C(=O)N(C)CC(=O)NCCCOCCOCCOCCCNC(=O)CC[C@H](NC(=O)CCCCCCCCCCCCCCC(=O)O)C(=O)O)CSCC(=O)N[C@@H](Cc2ccc(O)cc2)C(=O)N(C)[C@@H](C)C(=O)N[C@@H](CC(N)=O)C(=O)N2CCC[C@H]2C(=O)N[C@@H](CN)C(=O)N[C@@H](CC(C)C)C(=O)N2C[C@H](O)C[C@H]2C(=O)N[C@@H](Cc2c[nH]c3ccccc23)C(=O)N[C@@H](CCN)C(=O)N[C@@H](Cc2cn(CC(=O)O)c3ccccc23)C(=O)N1C [Example 11171] ({CH2CO}-Y[NMeA]NP[Dap]L[Hyp]W[Dab][Trp(1-CH2COOH)][NMeNle][NMeNle]LC[Sar]-X13; thioether N-14)
3,10 to 99,CCCC[C@H]1C(=O)N(C)[C@@H](CCCC)C(=O)N[C@@H](CC(C)C)C(=O)N[C@H](C(=O)NCCCOCCOCCOCCCNC(=O)CCC(=O)NCCCCCCCCCCCCC(=O)O)CSCC(=O)N[C@@H](Cc2ccc(O)cc2)C(=O)N(C)[C@@H](C)C(=O)N[C@@H](CC(N)=O)C(=O)N2CCC[C@H]2C(=O)N[C@@H](CN)C(=O)N[C@@H](CC(C)C)C(=O)N2C[C@H](O)C[C@H]2C(=O)N[C@@H](Cc2c[nH]c3ccccc23)C(=O)N[C@@H](CCN)C(=O)N[C@@H](Cc2cn(CC(=O)O)c3ccccc23)C(=O)N1C [Example 11214] ({CH2CO}-Y[NMeA]NP[Dap]L[Hyp]W[Dab][Trp(1-CH2COOH)][NMeNle][NMeNle]LC-X8; thioether N-14)
4,100 to 1600,CCCC[C@H]1C(=O)N(C)[C@@H](CCCC)C(=O)N[C@@H](CC(C)C)C(=O)N[C@H](C(=O)NCC(=O)N[C@@H](CCC(=O)NCCC[C@H](NC(=O)CCCCCCCCCCCCCCCCC(=O)O)C(=O)O)C(=O)O)CSCC(=O)N[C@@H](Cc2ccc(O)cc2)C(=O)N2CCCC[C@H]2C(=O)N[C@@H](CC(N)=O)C(=O)N2CCC[C@H]2C(=O)N[C@@H](CN)C(=O)N[C@@H](CC(C)C)C(=O)N2C[C@H](O)C[C@H]2C(=O)N[C@@H](Cc2c[nH]c3ccccc23)C(=O)N[C@@H](CCN)C(=O)N[C@@H](Cc2cn(CC(=O)O)c3ccccc23)C(=O)N1C [Example 13142] ({CH2CO}-Y[Pip]NP[Dap]L[Hyp]W[Dab][Trp(1-CH2COOH)][NMeNle][NMeNle]LCGE(δOrn(Nα-Octadecanedioyl))-OH; thioether N-14)
5,0.3 to 9.9,CCCC[C@H]1C(=O)N(C)[C@@H](CCCC)C(=O)N[C@@H](CCC(=O)O)C(=O)N[C@H](C(=O)N[C@@H](Cc2cn(CCC(NC(=O)CCCCCCCCCCCCCCCCC(=O)O)C(=O)O)nn2)C(=O)O)CSCC(=O)N[C@@H](Cc2ccc(O)cc2)C(=O)N(C)[C@@H](C)C(=O)N[C@@H](CC(N)=O)C(=O)N2CCC[C@H]2C(=O)N[C@@H](CN)C(=O)N[C@@H](CC(C)C)C(=O)N2C[C@H](O)C[C@H]2C(=O)N[C@@H](Cc2c[nH]c3ccccc23)C(=O)N[C@@H](CCN)C(=O)N[C@@H](Cc2cn(CC(=O)O)c3ccccc23)C(=O)N1C (stereo partly shown) [Example 13130]
6,10 to 99,CCCC[C@H]1C(=O)N(C)[C@@H](CCCC)C(=O)N[C@@H](CC(C)C)C(=O)N[C@H](C(=O)NCCCOCCOCCOCCCNC(=O)CCC(=O)NCCCCCCCCCCC(=O)O)CSCC(=O)N[C@@H](Cc2ccc(O)cc2)C(=O)N(C)[C@@H](C)C(=O)N[C@@H](CC(N)=O)C(=O)N2CCC[C@H]2C(=O)N[C@@H](CO)C(=O)N[C@@H](CCC(N)=O)C(=O)N2C[C@H](O)C[C@H]2C(=O)N[C@@H](Cc2c[nH]c3ccccc23)C(=O)N[C@@H](CO)C(=O)N[C@@H](Cc2cn(CC(=O)O)c3ccccc23)C(=O)N1C [Example 11083] ({CH2CO}-Y[NMeA]NPSQ[Hyp]WS[Trp(1-CH2COOH)][NMeNle][NMeNle]LC-X14; thioether N-14)
7,10 to 99,CCCC[C@H]1C(=O)N(C)[C@@H](CCCC)C(=O)N[C@@H](CC(C)C)C(=O)N[C@H](C(=O)NCCCCCCCCCCC(=O)N[C@@H](CCC(=O)O)C(=O)O)CSCC(=O)N[C@@H](Cc2ccc(O)cc2)C(=O)N(C)[C@@H](C)C(=O)N[C@@H](CC(N)=O)C(=O)N2CCC[C@H]2C(=O)N[C@@H](CN)C(=O)N[C@@H](CCC(N)=O)C(=O)N2C[C@H](O)C[C@H]2C(=O)N[C@@H](Cc2c[nH]c3ccccc23)C(=O)N[C@@H](CO)C(=O)N[C@@H](Cc2cn(CC(=O)O)c3ccccc23)C(=O)N1C [Example 11132] ({CH2CO}-Y[NMeA]NP[Dap]Q[Hyp]WS[Trp(1-CH2COOH)][NMeNle][NMeNle]LC[Aun]E-OH; thioether N-14)
